Measured values as given in paper PMC7911516, “Investigation of the Factors Responsible for the Poor Oral Bioavailability of Acacetin in Rats: Physicochemical and Biopharmaceutical Aspects” (Pharmaceutics, 2021).

What was measured:
[1] = Blood-to-plasma concentration ratio; format: in vitro ADME; settings: Sprague-Dawley, rat, 37 °C, read-out: RB (blood-to-plasma concentration ratio)
Experimental: The fractions of unbound acacetin in plasma (fuP), microsomes (fuMIC), SGF (fuSGF), and SIF(fuSIF) were measured using a rapid equilibrium dialysis device (Thermo Fisher Scientific, Inc., Waltham, MA, USA) as previously described with slight modifications. Briefly, 0.2 mL of the matrix spiked with acacetin (10 μM) was placed into the “sample” chamber, and 0.4 mL of PBS was placed into the adjacent “buffer” chamber. The fractions of unbound acacetin were calculated as the concentration ratio between the two chambers. The blood-to-plasma concentration ratio (RB) of acacetin was determined as described previously. Briefly, 1-mL blood spiked with acacetin (1 μM) was incubated at 37 °C for 30 min. The blood sample was centrifuged at 2000× g for 5 min to prepare the plasma sample. The concentrations of acacetin in the aforementioned plasma and buffer samples were measured using the LC-MS/MS method.

[2] = design: method as in doi:10.5958/0974-360X.2019.00624.3; settings: oral administration at 10 mg/kg; cited from earlier work
[3] = Michaelis–Menten metabolic kinetics in RLM with NADPH and UDPGA; format: in vitro ADME, rat; settings: NADPH and UDPGA/alamethicin
Experimental: To investigate hepatic phase I enzymes- and UGT-dependent metabolism of acacetin, the disappearance rate of acacetin at concentrations of 1–200 µM in RLM was measured in the presence of both NADPH and UDPGA. The substrate (acacetin) concentration ((S); µM) versus the initial metabolic rate (V; nmol/min/mg protein) profiles were interpreted based on Michaelis–Menten kinetics, and relevant parameters were estimated via nonlinear regression analysis (GraphPad Prism ver. 5.01; GraphPad Software, San Diego, CA, USA) using the following Michaelis–Menten equation: V = Vmax× [S]/Km× [S] where Km and Vmax are the Michaelis–Menten constant and maximal metabolic rate, respectively. The unbound intrinsic metabolic clearance (CLint) was calculated as Vmax/(Km × fuMIC). Furthermore, the disappearance of acacetin (20 μM) in the absence or presence of specific CYP isoform-selective inhibitors in RLM was determined to study the hepatic CYP-mediated metabolism of acacetin. Microsomal incubation mixtures (total volume of 200 μL) were prepared as follows: RLM (0.5 mg/mL microsomal protein), 1 mM NADPH, 10 mM MgCl2, 50 mM potassium phosphate buffer, acacetin, with or without CYP isoform-selective inhibitors (10 μM NF for rat CYP1A, 10-μM SPZ for rat CYP2C, 10-μM QND for rat CYP2D, and 10-μM KCZ for rat CYP3A). At 0 and 5 min after initiating the metabolic reaction, a 100-μL aliquot of the incubation mixture was taken, transferred into a clean 1.5 mL microcentrifuge tube containing 100 μL cold acetonitrile to terminate the metabolic reaction, and finally treated in the same manner as described for the tissue S9 fraction samples.

[4] = Disappearance in rat plasma and tissue S9 fractions; format: in vitro ADME; settings: 10 μM, 5 min, S9 0.5 mg/mL, NADPH or UDPGA/alamethicin
Experimental: The rat gut, spleen, kidney, liver, heart, brain, and lung were excised after cervical dislocation, rinsed with cold saline, blotted dry with tissue paper, and weighed. Each tissue sample was homogenized using a homogenizer (Ultra-Turrax T10 basi; IKA-Werke GmbH & Co. KG, Staufen, Germany) in cold 0.25 M sucrose solution. The homogenate was centrifuged at 9000× g for 30 min, and the supernatant fraction was stored at −80 °C until further use. The reaction mixture consisted of substrate, plasma, or tissue S9 fractions (protein concentration: 0.5 mg/mL) and NADPH (1 mM) or UDPGA (2 mM) in Tris buffer (100 mM; pH 7.4). After preincubation at 37 °C for 5 min, acacetin (final concentration: 10 μM) was added to initiate the enzyme reaction. After 5 min of incubation with shaking at 37 °C, the reaction was terminated by mixing the reaction mixture with acetonitrile containing IS (volume four times that of the reaction mixture). After vortex-mixing and centrifugation at 16,000× g for 10 min, 100 μL of the supernatant was obtained and stored at −80 °C until further LC-MS/MS assay.

Caco-2 cell = test system: Caco-2 cell; design: method as in PMID 22292790; settings: cited from earlier work
[5] = Maximum absorbable dose (MAD) estimation; design: species or system rat; settings: oral dose 100 mg/kg, from measured SIF solubility
Text: The PAMPA permeability values of acacetin seem to lie approximately in the middle of those of verapamil and ranitidine. […]. Rats have been recognized as a good animal model for predicting the GI absorption of drugs, particularly via passive diffusion, in humans. As a GI absorption prediction model, the maximum absorbable dose (MAD) can estimate a theoretical dose of a drug that can be absorbed across rat intestine, using solubility, intestinal volume, residence time, and intestinal permeability. […] Thus, the SIF solubility of acacetin measured in the present study could not represent an actual solubility of acacetin when it is dispersed in the dosing vehicle and subsequently administered into the GI fluids, which could result in the under-estimation of MAD. Alternatively, an in silico estimate of acacetin solubility in water can be used for the calculation of MAD.

[6] = In situ closed-loop study (jejunal loop); format: in vivo, rat
Experimental: The in situ closed-loop study was performed as previously described with slight modification. Briefly, after minimal abdominal incision under light ether anesthetization and sufficient washing of the contents within the GI tract, the jejunal loop was closed by ligation performed at approximately 2 cm distal to both ends of each jejunal section. Acacetin suspension (final concentration: 1 mg/mL) was prepared by dispersing acacetin powder in the vehicle solution for oral study and subsequently diluting it 5-fold with the SIF (final composition: 2% DMSO, 1% EtOH, and 17% PEG400 in the SIF). After injecting 0.2 mL of acacetin suspension into each loop using a l-mL 31-gauge syringe, the whole GI tract was carefully returned to its original position in the abdominal cavity. At 4 h after the injection, each loop was removed, transferred into a beaker containing 50 mL of methanol, and handled similar to the GI samples in the in vivo pharmacokinetic study. As control (in vitro isolated loop) groups, the jejunal closed-loop was prepared in the same manner as the in situ loop study, removed from the rat intestinal tract using scissors with special care not to damage the loop, and transferred to a glass beaker. Then, acacetin dispersed in the vehicle was injected into the isolated loop. After 0-h and 4-h incubation at 37 °C, the remaining fraction of acacetin in the isolated loop was measured in the same manner as the procedure for the GI sample in the in vivo pharmacokinetic study.

blood plasma ratio at 30 min, 1 μM [1]: ~1
Km ([3]; 1–200 µM): 187 ± 14 µM
microsomal CLint ([3]; Sprague-Dawley, rat, liver microsomes (RLM)): 508 ± 9 µL/min/mg
MAD as portion of the orally administered dose [5]: 0.00361%
Fraction of dose eliminated by GI and hepatic first-pass metabolism ([6]; = 2.9 − 2.34): 0.56 % of the dose
Fraction unabsorbed from the GI tract ([6]; =100 − 2.9): 97.1 % of the dose
Portion absorbed from the loop ([6]; difference isolated loop vs in situ loop): 2.9%
Remaining fraction in the in vitro isolated loop ([6]; jejunal loop, 4-h incubation at 37 °C): 78.9%
Remaining fraction in the in situ loop ([6]; rat jejunal loop, 4 h after injection): 76.0%
Compound: COc1ccc(-c2cc(=O)c3c(O)cc(O)cc3o2)cc1 [acacetin, Acacetin]
Cmax [2]: 1668 ng/mL
bioavailability [2]: 84%
Vmax [3]: 95.0 ± 5.6 nmol/min/mg protein
Tissue-dependent metabolizing activity (disappearance rate) [4]: the liver exhibited significantly higher metabolizing activity than all the tested tissues
Caco-2 cell permeability (Caco-2 cell): 2.81 × 10^–6 cm/s
